This data set deals with dogs diagnosed with chronic valvular disease (CVD). Kind of data set: Double-blind placebo-controlled study of long-term efficacy, safety and survival in dogs with chronic valvular disease. In kind it is in vivo. As to conditions: for Owner-reported symptom score (mean ± SD): score 0 (best) to 18 (worst), 0.05 mg/kg orally twice a day. On the procedure: A double-blind placebo-controlled study was conducted for evaluating the long-term efficacy and safety of levosimendan and its effect on long-term survival in dogs diagnosed with chronic valvular disease (CVD). Dogs were randomised to receive either 0.05 mg/kg of levosimendan (n=40) or placebo (n=40) orally twice a day for 5 months. All dogs were allowed to receive their background therapy (ACE-inhibitors, diuretics, beta-blockers and/or digoxin). Quality of life, symptoms of CVD, safety and mortality assessment were conducted throughout the study.
Improvement in quality of life was determined by using a composite owner-reported symptom score (ORSS). ORSS is a composite variable that was calculated by summing scores for appetite, intolerance to exercise, daytime cough, nocturnal cough, and nocturnal restlessness. The owner-reported symptom score could range from 0 (best possible) to 18 (worst possible).

[1] abbreviates: 0.05 mg/kg orally twice a day for 5 months, added to standard therapy, vs placebo, FIG. 1.

Data on one molecule can be found in patent US20100286150A1, “LEVOSIMENDAN FOR USE IN TREATING CHRONIC VALVULAR DISEASE” (priority 2008, published 2010).

Turning to `C[C@@H]1CC(=O)NN=C1c1ccc(NN=C(C#N)C#N)cc1` [levosimendan, (−)-enantiomer of [[4-(1,4,5,6-tetrahydro-4-methyl-6-oxo-3-pyridazinyl)phenyl]hydrazono]propanedinitrile], under “0.05 mg/kg orally twice a day for 5 months in dogs with CVD”, the safety result was “No significant safety concerns”. Besides, under setting [1], the mortality result was “significantly reduced mortality”. In addition, the survival entry under setting [1] is “prolonged survival”. The “quality of life over time compared to baseline assessments (0 months)” value (owner-reported symptom score, 0.05 mg/kg orally twice a day for 5 months) is “significantly improved”. Moreover, the “Owner-reported symptom score (mean ± SD)” value (time 0 months (baseline)) came out at 5.6 ± 2.4, the “Owner-reported symptom score (mean ± SD)” value (time 1 month) amounted to 4.1 ± 3.2, the “Owner-reported symptom score (mean ± SD)” value (time 3 months) worked out at 4.4 ± 4.1 and the “Owner-reported symptom score (mean ± SD)” value (time 5 months) was determined as 4.4 ± 3.4.
